Test results reported in ChEMBL document CHEMBL1201862, “PubChem BioAssay data set” (2004).
Calls of active or inactive are those of the source.

Key:
cells = type: functional, cell-based
[1] = Luminescence Cell-Based Dose Response HTS to Identify Activators of Luciferase Translation or Activity in H4 […] Cells. [Related pubchem assays: 1829 (Project Summary), 1814 (Primary HTS)]; type: functional
[2] = biological target: Peroxisome proliferator-activated receptor gamma/Nuclear receptor coactivator 2 (Homo sapiens, UniProt P37231); type: functional;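 further: agonist potency for raising coactivator recruitment to the receptor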
[3] = biological target: T1, C-C chemokine receptor type 6 (Homo sapiens, UniProt P51684); assay: antagonism of CCR6 beta-arrestin recruitment – cell-based, luminescent beta-arrestin readout, dose response (AID 504728); type: functional
T1 sequence (P51684 whole entry): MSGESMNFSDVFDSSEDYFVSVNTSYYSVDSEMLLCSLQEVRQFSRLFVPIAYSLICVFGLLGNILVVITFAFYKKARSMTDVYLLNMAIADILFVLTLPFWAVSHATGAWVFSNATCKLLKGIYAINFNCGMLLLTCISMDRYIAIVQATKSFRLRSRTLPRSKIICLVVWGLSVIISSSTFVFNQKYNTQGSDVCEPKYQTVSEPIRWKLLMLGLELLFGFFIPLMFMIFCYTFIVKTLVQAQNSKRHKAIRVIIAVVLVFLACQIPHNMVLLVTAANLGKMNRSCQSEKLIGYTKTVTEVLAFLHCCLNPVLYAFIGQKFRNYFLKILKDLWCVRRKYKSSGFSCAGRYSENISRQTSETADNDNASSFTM

[4] = biological target: Serine/threonine-protein kinase Chk2 (Homo sapiens, UniProt O96017); type: functional;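 further: CHEK2 entry within a kinome-wide screening panel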
[5] = biological target: Dual specificity tyrosine-phosphorylation-regulated kinase 1A (Homo sapiens, UniProt Q13627); type: functional;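 further: measured against DYRK1A as one member of a broad kinome profiling panel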
[6] = biological target: Serine/threonine-protein kinase pim-2 (Homo sapiens, UniProt Q9P1W9); type: functional;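 further: value comes from a broad kinase panel profiling study in which PIM2 was one of the panel members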
[7] = biological target: Tyrosine-protein kinase FRK (Homo sapiens, UniProt P42685); type: functional;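 further: FRK tested as one member of a kinome panel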
[8] = biological target: Serine/threonine-protein kinase D2 (Homo sapiens, UniProt Q9BZL6); type: functional;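 further: measured against PRKD2 as one member of a kinome-wide kinase profiling panel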
[9] = biological target: Serine/threonine-protein kinase 17A (Homo sapiens, UniProt Q9UEE5); type: functional
[10] = biological target: Tyrosine-protein kinase Lyn (Homo sapiens, UniProt P07948); type: functional;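 further: lyn as one member of a kinase panel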
[11] = biological target: Cyclin-dependent kinase 7 (Homo sapiens, UniProt P50613); type: functional;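 further: value comes from a kinome-wide kinase profiling panel in which CDK7 is one member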
[12] = biological target: Casein kinase II subunit alpha (Homo sapiens, UniProt P68400); type: functional
[13] = biological target: Serine/threonine-protein kinase pim-3 (Homo sapiens, UniProt Q86V86); type: functional;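 further: value obtained as one member of a broad kinase panel profiling effort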
[14] = biological target: Tyrosine-protein kinase BTK (Homo sapiens, UniProt Q06187); type: functional
[15] = biological target: G2/mitotic-specific cyclin-B1 (Homo sapiens, UniProt P14635); assay: Counterscreen assay for inhibitors of Wee1 degradation: dose response cell-based assay to identify inhibitors of cyclin B degradation. [Related pubchem assays: 1410, 1321 ]; type: functional
[16] = Trypanosoma cruzi growth suppression in host cells – NIH3T3 host cells, beta-gal luminescence, confirmation (AID 2044); type: functional, cell-based;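 further: intracellular parasites grown in NIH/3T3 mouse fibroblasts as host cells; luminescent beta-galactosidase reporter signal from transgenic T. cruzi replicating inside host cells; inhibitors lower the luminescence signal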
[17] = biological target: Delta-type opioid receptor (Homo sapiens, UniProt P41143); assay: HTS Image-Based Screen for Agonists of the DOR Receptor. [Related pubchem assays (depositor defined):AID1777, AID1786, AID2133]; type: functional
HEK293 = assay: inhibition of NOD1-driven NF-kB reporter – cell-based, luminescence, uHTS, primary screen (AID 1578); type: functional; settings: Homo sapiens
[18] = biological target: Hepatocyte nuclear factor 4-alpha (Homo sapiens, UniProt P41235); type: functional, cell-based;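 further: biochemical luminescence-based dose-response counterscreen measuring inhibition of HNF4 dimerization, run alongside a screen for blockers of ABHD5–perilipin-5 interaction; split luciferase complementation of HNF4 fusion proteins in cell lysate measuring dimerization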
Sequence of Hepatocyte nuclear factor 4-alpha (P41235 whole entry, the tested form may be a part): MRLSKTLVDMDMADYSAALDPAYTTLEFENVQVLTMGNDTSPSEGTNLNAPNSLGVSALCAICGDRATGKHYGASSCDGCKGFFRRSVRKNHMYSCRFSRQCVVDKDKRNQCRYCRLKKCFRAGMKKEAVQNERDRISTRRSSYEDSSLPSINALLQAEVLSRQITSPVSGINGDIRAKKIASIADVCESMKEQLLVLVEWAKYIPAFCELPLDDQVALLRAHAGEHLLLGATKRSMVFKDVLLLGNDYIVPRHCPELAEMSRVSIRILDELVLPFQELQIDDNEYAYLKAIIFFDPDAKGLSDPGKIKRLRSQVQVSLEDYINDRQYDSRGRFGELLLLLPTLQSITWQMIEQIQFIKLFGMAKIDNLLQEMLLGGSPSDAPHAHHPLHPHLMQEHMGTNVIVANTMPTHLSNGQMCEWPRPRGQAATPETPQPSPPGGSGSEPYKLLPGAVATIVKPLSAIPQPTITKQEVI

Sequence of Peroxisome proliferator-activated receptor gamma/Nuclear receptor coactivator 2 (P37231 whole entry): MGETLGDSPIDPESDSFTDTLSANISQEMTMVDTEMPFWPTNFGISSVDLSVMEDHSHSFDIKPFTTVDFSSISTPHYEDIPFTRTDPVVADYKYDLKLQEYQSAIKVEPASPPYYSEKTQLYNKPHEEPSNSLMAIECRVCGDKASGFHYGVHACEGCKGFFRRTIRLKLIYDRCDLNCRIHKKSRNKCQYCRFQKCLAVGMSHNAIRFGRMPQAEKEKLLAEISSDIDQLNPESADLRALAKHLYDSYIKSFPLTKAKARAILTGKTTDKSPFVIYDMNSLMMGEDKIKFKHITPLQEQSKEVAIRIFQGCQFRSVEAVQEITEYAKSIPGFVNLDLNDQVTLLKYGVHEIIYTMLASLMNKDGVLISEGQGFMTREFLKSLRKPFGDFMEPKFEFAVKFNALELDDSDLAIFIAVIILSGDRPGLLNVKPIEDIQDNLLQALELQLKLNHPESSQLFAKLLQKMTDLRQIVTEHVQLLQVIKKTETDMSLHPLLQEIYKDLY
Sequence of Peroxisome proliferator-activated receptor gamma/Nuclear receptor coactivator 2 (Q15596 whole entry, further chain): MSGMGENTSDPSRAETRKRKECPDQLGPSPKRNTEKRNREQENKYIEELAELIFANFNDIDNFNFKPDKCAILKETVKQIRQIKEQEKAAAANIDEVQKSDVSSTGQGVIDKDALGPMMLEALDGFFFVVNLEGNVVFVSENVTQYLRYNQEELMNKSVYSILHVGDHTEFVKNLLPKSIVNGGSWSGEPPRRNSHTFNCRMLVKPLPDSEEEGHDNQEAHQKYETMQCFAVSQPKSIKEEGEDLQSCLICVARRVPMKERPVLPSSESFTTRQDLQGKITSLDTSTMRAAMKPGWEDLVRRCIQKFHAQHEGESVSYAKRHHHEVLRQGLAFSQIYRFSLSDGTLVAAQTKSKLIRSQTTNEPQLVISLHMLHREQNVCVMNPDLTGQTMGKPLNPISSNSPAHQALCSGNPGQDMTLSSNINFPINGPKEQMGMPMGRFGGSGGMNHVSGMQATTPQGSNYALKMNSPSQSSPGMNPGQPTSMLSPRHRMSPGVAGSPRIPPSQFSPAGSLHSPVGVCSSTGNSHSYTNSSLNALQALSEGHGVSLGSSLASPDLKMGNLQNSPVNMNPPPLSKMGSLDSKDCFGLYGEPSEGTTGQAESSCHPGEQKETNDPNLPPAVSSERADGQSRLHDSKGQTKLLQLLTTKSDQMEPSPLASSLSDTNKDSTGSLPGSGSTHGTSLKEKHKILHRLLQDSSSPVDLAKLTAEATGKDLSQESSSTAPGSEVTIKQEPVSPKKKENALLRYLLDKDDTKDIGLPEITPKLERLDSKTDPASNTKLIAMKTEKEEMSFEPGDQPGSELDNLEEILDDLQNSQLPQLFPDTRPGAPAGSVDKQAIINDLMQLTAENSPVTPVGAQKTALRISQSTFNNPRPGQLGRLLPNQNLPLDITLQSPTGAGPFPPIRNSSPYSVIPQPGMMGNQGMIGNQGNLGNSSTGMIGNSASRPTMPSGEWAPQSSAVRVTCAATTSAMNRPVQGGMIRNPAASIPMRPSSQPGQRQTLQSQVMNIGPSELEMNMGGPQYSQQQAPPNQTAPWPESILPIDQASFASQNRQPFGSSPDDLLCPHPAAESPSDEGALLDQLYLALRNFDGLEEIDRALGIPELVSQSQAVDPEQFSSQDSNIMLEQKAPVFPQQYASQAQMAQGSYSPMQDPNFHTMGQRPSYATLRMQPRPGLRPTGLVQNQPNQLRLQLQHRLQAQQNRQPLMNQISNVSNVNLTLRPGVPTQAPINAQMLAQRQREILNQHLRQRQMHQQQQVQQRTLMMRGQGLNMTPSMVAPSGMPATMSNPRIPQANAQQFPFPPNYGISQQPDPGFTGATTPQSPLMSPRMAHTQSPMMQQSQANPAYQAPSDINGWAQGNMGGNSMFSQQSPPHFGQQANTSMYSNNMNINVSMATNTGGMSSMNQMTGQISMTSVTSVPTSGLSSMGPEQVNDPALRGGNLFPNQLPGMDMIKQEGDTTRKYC
Sequence of Serine/threonine-protein kinase pim-2 (Q9P1W9 whole entry): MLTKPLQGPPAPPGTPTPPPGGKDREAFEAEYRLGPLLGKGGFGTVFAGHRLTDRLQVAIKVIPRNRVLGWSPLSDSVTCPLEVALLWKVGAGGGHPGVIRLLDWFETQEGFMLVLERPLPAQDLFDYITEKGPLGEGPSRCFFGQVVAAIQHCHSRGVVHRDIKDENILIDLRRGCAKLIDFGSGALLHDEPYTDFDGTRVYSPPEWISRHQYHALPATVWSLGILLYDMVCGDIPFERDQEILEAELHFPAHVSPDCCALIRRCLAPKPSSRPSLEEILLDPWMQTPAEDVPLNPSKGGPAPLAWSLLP
Sequence of Tyrosine-protein kinase BTK (Q06187 whole entry): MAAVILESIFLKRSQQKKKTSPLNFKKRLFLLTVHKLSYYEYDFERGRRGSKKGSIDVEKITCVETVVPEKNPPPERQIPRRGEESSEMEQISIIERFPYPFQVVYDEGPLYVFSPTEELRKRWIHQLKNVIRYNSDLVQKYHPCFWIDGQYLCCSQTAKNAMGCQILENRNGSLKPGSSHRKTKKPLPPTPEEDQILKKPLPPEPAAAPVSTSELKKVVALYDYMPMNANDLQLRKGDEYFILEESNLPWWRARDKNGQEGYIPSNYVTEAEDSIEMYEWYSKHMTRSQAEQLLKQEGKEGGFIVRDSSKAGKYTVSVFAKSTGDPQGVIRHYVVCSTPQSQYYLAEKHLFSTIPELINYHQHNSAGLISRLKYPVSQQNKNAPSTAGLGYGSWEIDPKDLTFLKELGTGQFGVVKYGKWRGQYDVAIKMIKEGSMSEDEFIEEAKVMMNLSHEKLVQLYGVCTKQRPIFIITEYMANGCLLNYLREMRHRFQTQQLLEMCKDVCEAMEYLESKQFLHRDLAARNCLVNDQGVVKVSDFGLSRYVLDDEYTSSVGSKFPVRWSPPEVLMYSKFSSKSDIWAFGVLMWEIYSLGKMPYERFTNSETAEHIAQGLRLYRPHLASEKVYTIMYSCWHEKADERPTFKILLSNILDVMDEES
Sequence of Tyrosine-protein kinase Lyn (P07948 whole entry): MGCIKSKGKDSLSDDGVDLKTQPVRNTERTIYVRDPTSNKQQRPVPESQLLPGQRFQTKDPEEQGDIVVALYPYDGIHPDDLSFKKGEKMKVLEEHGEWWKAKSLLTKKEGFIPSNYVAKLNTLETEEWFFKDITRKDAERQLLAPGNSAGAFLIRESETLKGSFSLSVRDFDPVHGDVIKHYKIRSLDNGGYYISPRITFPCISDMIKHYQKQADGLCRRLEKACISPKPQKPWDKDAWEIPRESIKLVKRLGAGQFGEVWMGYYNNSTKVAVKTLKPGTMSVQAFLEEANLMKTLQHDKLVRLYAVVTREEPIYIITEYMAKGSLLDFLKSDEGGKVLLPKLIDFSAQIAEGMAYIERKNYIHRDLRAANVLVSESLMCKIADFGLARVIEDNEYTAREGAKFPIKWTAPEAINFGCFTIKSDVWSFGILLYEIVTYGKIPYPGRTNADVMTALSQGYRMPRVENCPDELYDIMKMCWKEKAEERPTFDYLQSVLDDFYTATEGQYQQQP
Sequence of Delta-type opioid receptor (P41143 whole entry): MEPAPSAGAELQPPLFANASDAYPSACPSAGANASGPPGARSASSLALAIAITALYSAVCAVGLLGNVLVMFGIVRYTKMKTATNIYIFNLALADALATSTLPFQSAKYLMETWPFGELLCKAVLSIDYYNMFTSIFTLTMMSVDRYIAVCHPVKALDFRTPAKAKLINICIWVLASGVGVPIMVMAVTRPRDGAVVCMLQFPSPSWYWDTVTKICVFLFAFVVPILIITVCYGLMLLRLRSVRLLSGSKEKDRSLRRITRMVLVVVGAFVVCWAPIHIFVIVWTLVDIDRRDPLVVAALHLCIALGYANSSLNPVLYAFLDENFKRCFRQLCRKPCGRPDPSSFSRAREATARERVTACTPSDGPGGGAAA
Sequence of Cyclin-dependent kinase 7 (P50613 whole entry): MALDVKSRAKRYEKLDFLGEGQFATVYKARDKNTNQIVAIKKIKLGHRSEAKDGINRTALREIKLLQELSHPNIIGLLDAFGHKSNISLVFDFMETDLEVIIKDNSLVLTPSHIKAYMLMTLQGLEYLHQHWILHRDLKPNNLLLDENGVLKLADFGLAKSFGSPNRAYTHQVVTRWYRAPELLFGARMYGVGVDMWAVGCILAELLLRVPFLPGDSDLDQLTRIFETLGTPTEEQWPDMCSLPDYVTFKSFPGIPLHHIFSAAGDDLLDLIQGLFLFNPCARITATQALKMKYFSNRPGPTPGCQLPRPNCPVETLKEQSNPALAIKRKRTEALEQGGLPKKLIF

## Cc1cnc(NC(=O)c2sc3ccccc3c2Cl)s1
cells
  IC50: > 67500 nM (inactive)

## CN(C)c1ncc(C2=C(Cl)C(=O)C(N3CCCC3)=C(Cl)C2=O)s1
[1]
  EC50: 13700 nM (active)
[2]
  EC50: > 79400 nM (not active)
[3]
  IC50: > 66600 nM (inactive)

## O=C1NC(=S)SC1=C1C(=O)Nc2ccc(Br)cc21
[4]
  Ki: 1260 nM (active)
[5]
  Ki: 1000 nM (active)
[6]
  Ki: 251 nM (active)
[7]
  Ki: > 2510 nM (inactive)
[8]
  Ki: 3160 nM (active)
[9]
  Ki: 631 nM (active)
[10]
  Ki: > 1580 nM (inactive)
[11]
  Ki: > 1580 nM (inactive)
[12]
  Ki: 631 nM (active)
[13]
  Ki: 50.1 nM (active)
[14]
  Ki: > 1260 nM (inactive)

## Cc1ccc(Nc2cc(C)nn2-c2nc(C)cc(O)n2)cc1
[15]
  EC50: > 49700 nM (not active)
[16]
  EC50: < 100 nM (active)
[17]
  EC50: > 32000 nM (inactive)

## O=C1C(O)=C/C(=N\c2ccccc2O)c2ccccc21
HEK293
  EC50: 14800 nM (active)

## Cc1ccc(C(=O)c2c(C)oc3c2C(=O)C(=O)c2ccccc2-3)cc1
[18]
  IC50: 5420 nM (active)
